Results from patent US20040141992A1, “Desensitizers” (priority 2001, published 2004).
Where two headings read alike, the source gives them in different places. No end group written: not given here.

Tests used:
healthy volunteers = test: Allergic skin test (intradermal injection, flare size) in healthy volunteers; format: in vivo, human; details: for positive skin reaction, number of cases: among 41 or 42 cases of healthy volunteers
Description: Therefore, it was investigated whether an allergic reaction to a peptide derived from the above self-antigen would also be observed in healthy volunteers. Skin tests were carried out with respect to self-derived tumor rejection antigen peptides capable of inducing cytotoxic T cells for 42 cases of healthy volunteers whose age ranges from 19 years old to 54 years old (mean age 29.2 years). For testing an allergic skin reaction, 10 μg of each peptide (50 μl volume) was intradermally injected, and evaluation was carried out 15 minutes after the injection. The results are summarized in Tables 1 to 4, wherein ‘NT’ and ‘S. T’ mean ‘not tested’ and ‘skin test’, respectively. −: longest diameter (D) of flare […] +: 10 mm≦D<30 mm ++: 30 mm≦D<50 mm +++: 50 mm≦D

cancer patients [1] = test: Skin test by pre-vaccination before phase I clinical trial in cancer patients
[2] = test system: skin reaction and serum IgE level against SART3315; details: human, in vivo
Description: The phase I clinical test using SART3109 was carried out on a colon cancer patient whose skin reaction against SART3315 was positive. With respect to the patient, a skin reaction against SART3109 was negative, and a specific IgE level in serum against SART3315 and SART3109 was low. […] Although a SART3109-specific IgE level in serum was increased by administration of SART3109, skin reactions before and after administration of the same were negative (FIG. 1F). Namely, an allergic reaction and the specific IgE level in serum against SART3315 were reduced by administration of SART3109.

[3] = test system: skin reaction and serum IgE level against ART413; details: human, in vivo
Description: The phase I clinical trial with ART475 was carried out on an ovarian cancer patient whose skin reaction against ART413 was positive. With respect to the patient, a skin reaction against ART475 was negative, and a specific IgE level in serum against ART413 and ART475 was low. […] Namely, an allergic reaction and a specific IgE level in serum against ART413 were reduced by administration of ART475.

cancer patients [4] = details: human, in vivo
[5] = test system: skin reaction and serum IgE level against CypB84; test: Phase I clinical trial of peptide vaccine using CypB91 in lung cancer patient; format: in vivo, human
Description: The phase I clinical trial of a peptide vaccine using CypB91 was carried out on a lung cancer patient whose skin reaction and serum IgE level against CypB84 were positive in the above allergic skin test. The skin reaction and serum IgE level against CypB91 of the patient were negative. […] A skin reaction and a serum […] level against CypB91 even after 3 times administration of CypB91 were substantially the same as those before administration, i.e., negative (FIG. 1B).

[6] = positive donors / donors tested, healthy volunteers

| Substance | S. T positive rate (healthy volunteers; [6]) | positive skin reaction, percent of healthy volunteers (healthy volunteers; healthy volunteers) [%] | positive skin reaction, number of cases (healthy volunteers) [cases] | further results |
| --- | --- | --- | --- | --- |
| AFLRHAAL [ART413, AFLRHAAL] | 39/41 | 95 | – | allergic skin reaction (cancer patients [1]; ovarian cancer patients): elicited an allergic skin reaction |
| DYPSLSATDI [ART475, DYPSLSATDI] | 1/41 | – | – | ART475-specific IgE level in serum [3]: gradually increased; skin reaction against ART475 [3]: negative |
| CypB84F-Y: peptide obtained by partially modifying CypB84: phenylalanine (F) at the 2nd position replaced with tyrosine (Y) (KYHRVIKDF; Peptide consisting of 9 amino acid residues from the 84th residue to the 92nd residue of cyclophillin B) | – | – | – | immediate hypersensitivity skin reactions elicited (cancer patients [4]): eight of ten |
| CypB91-2F-Y: peptide obtained by replacing phenylalanine at the 2nd position of CypB91 with tyrosine (DYMIQGGDF; Designed peptide based on the peptide consisting of 9 amino acid residues from the 91st residue to the 99th residue of cyclophillin B) | – | – | – | inhibition of skin reaction and specific IgE level against CypB84, number of cases ([5]; among 10 cases tested, vaccination of CypB91 or CypB91-2F-Y): 9 cases |
| KFHRVIKDF [CypB84, KFHRVIKDF] | 40/42 | 95 | 40 | immediate hypersensitivity skin reactions elicited (cancer patients [1]; pre-vaccinated lung-cancer patients): eight of ten |
| DFMIQGGDF [CypB91, DFMIQGGDF] | – | – | – | S. T positive rate (healthy volunteers; human, in vivo): 0/42; skin reaction against CypB91 ([5]; after 3 times administration of CypB91): negative |

Further lines, with some results ahead:

| S. T positive rate (healthy volunteers; [6]) | positive skin reaction, percent of healthy volunteers (healthy volunteers; healthy volunteers) [%] | positive skin reaction, number of cases (healthy volunteers) [cases] | Substance | further results |
| --- | --- | --- | --- | --- |
| 0/42 | – | – | AYDFLYNYL [SART2161, AYDFLYNYL] | S. T (skin test, size of inflammatory flare) (healthy volunteers; individual healthy donors, 10 μg peptide intradermally, evaluated 15 minutes after injection): − (longest diameter (D) of flare <30 mm) |
| 7/42 | 17 | 7 | VYDYNCHVDL [SART3109, VYDYNCHVDL] | SART3109-specific IgE level in serum [2]: increased; skin reactions against SART3109 [2]: negative |
| 10/41 | 24 | 10 | SYTRLFLIL [SART2899, SYTRLFLIL] | – |
| 18/41 | 44 | 18 | AYIDFEMKI [SART3315, AYIDFEMKI] | – |
